Experimental findings from patent US20100197625A1, “SYNTHETIC LIPOPHILIC INOSITOL GLYCANS FOR TREATMENT OF CANCER AND GLUCOSE-METABOLISM DISORDERS” (priority 2006, published 2010) are described below.

The test system of data set [1] is Ehrlich ascites cancer cells. The experiment in a line: Animal survival analysis, ddY mice bearing Ehrlich ascites cancer cells. It counts as in vivo. To be noted: daily intraperitoneal for 7 days. Here is the method:
Male ddy mice weighing 20-30 g obtained from and maintained on a standard diet and water ad libitum. Ehrlich ascites cancer cells (5×10^6 cells) were injected intraperitoneal to the mice. After 7 days later, the mice were subjected to daily intraperitoneal injection of IG1 or IG1 plus alkyl-acyl-phosphatidic acids (AAPAs) for additional 7 days. The endpoint of experiment was determined by spontaneous death of animals.

Another data set has as its system ob/ob obese mice. The data set is described as follows: IG-1 treatment for 28 days, ob/ob obese mice. It is filed as in vivo. Conditions: IG1 1 mg, Mean ± SD (n = 6). Here is the method: (§1) Blood glucose was assayed with Glucose Ace (Sanwa Kagaku Kenkyusho, Nagoya, Japan). Serum insulin and leptin were determined with ELISA kits (Morinaga Institute of Biological Science, Yokohama, Japan). Serum adiponectin and tumor necrosis factor-α (TNF-α) concentrations were measured with an ELISA kit (Ohtsuka Pharmaceutical, Tokyo, Japan) and a TNF-α assay kit (Amersham Biosciences, Uppsala, Sweden), respectively. Serum total cholesterol, triglyceride, and FFA concentrations were determined with a Cholescolor liquid, Lipidos liquid (TOYOBO, Osaka, Japan), and NEFA C (Wako Pure Chemical, Osaka, Japan) kits, respectively.

For the next data set, the system named is Panc-1 cells. The data set is described as follows: Lactate production in Panc-1 cells. To be noted: 1 hour incubation in serum free media. It counts as cell-based, human. Here is the method: Human pancreatic cancer cell lines (Panc-1, MiaPaca2, BXPC3, Aspc 1), human hepatoma cell line (HuH7), human gastric cancer cell lines (AGS, MKN45), human colon cancer cell line (CoCM-1), human mammary cancer cell line (MCF-7), human neuroblastoma (SH-SY5Y), human prostate cancer cells (PC3), and murine Ehrlich ascites cancer cells and mouse 3T3-L1 fibroblasts were obtained from American Type Culture Collection (Rockville, Md., USA). The cancer cells were cultured in RPMI 1640 containing 10% fetal calf serum. Cultures were maintained at 37° C. in a humidified atmosphere of 5% CO2.

The subject of data set [2] is C57B/6 mice on normal diets. The experiment in a line: Intraperitoneal IG1 for 7 days, mice on normal diets. It counts as in vivo. To be noted: intraperitoneal for every 7 days, data not shown. Here is the method:
(§2) Male C57BL/6 mice were housed individually and given free access to a standard diet (65% carbohydrate, 4% fat, and 24% protein) or a high-fat diet (Quick Fat; 60.2% carbohydrate, 15.3% fat, and 24.5% protein; Clea Japan, Tokyo, Japan), starting at 5 weeks of age, for 5 weeks. Db/db mice also were housed individually and given free access to a standard diet. C57BL/6 mice at 5 weeks of age, were received a single dose of 75 μg/g body weight streptozotoxin (STZ). 7 days after injections, the mice, whose fasting plasma glucose concentrations were over 400 mg/dl, were used as STZ-diabetic mice. […]
(§3) Frozen livers were homogenized, and triglycerides were extracted with CHCl3:CH3OH (2:1, vol:vol), dried and resuspended in 2-propanol (17). Triglyceride contents were measured using Lipidos liquid (TOYOBO, Osaka, Japan). […] Glycogen content was determined by the phenol-sulfuric acid spectrophotometric method at 490 nm (18) and expressed as micrograms of glycogen per milligram of liver.
(§4) Blood glucose was assayed with Glucose Ace (Sanwa Kagaku Kenkyusho, Nagoya, Japan). Serum insulin and leptin were determined with ELISA kits (Morinaga Institute of Biological Science, Yokohama, Japan). Serum adiponectin and tumor necrosis factor-α (TNF-α) concentrations were measured with an ELISA kit (Ohtsuka Pharmaceutical, Tokyo, Japan) and a TNF-α assay kit (Amersham Biosciences, Uppsala, Sweden), respectively. […]

Another data set has as its system 3T3-L1 adipocytes. The experiment in a line: Lipogenesis in 3T3-L1 adipocytes. It is filed as cell-based, mouse. To be noted: 10-1000 μM. How it is done: 3T3-L1 fibroblasts were maintained in Dulbecco's modified Eagle's medium (DMEM) with 25 mM glucose plus 10% fetal bovine serum (FBS). Following 2 days at confluence, differentiation was initiated by the addition of DMEM containing 10% FBS, 167 nM insulin, […] dexamethasone, and 0.5 mM isobutylmethylxanthine. Three days later, the medium was replaced with DMEM plus 10% FBS and 167 nM insulin. After 2 more days, the medium was switched to DMEM plus 10% fetal bovine serum. Adipocytes were used 6-14 days after completion of the differentiation protocol, when >90% of the cells expressed the adipocyte phenotype. Prior to experiments, cells were washed two times with DMEM medium containing 5 mM glucose, 0.2% bovine serum albumin, 25 mM Hepes (pH 7.4), 100 units/ml penicillin, 100 units/ml streptomycin and 0.29 mg/ml glutamine, and were incubated in the same medium for 2 h. Glycogen and lipid synthesis were measured in 24-well dishes. […] The lipids were then extracted overnight with 5 ml of Betafluor (National Diagnostics), and glucose incorporation into lipid was measured by scintillation counting. 400 μl of the cell suspension was added to 600 μl of 50% KOH, and glycogen was precipitated and radioactivity was counted by a liquid scintillation counter

Data set [3] concerns streptozotocin (STZ)-diabetic mice. The data set is described as follows: Intravenous administration of IG1, STZ-diabetic mice. It is filed as in vivo. Here is the method:
as §2, §3, §4

The subject of data set [4] is human umbilical vein endothelial cells (HUVEC). The experiment in a line: Cell death of human umbilical vein endothelial cells. It is filed as cell-based. Conditions: in 1 hour.
The test system of data set [5] is C57B/6 mice on high-fat diets. The data set is described as follows: Intravenous administration of IG1, mice on high-fat diets. It counts as in vivo. How it is done: as §2, §3, §4
Data set [6] relates to C57B/6 mice on normal diets. The data set is described as follows: Intravenous administration of IG1, mice on normal diets. It is filed as in vivo. Here is the method:
as §2, §3, §4

The test system of data set [7] is C57B/6 mice on high-fat diets. The experiment in a line: IG1 treatment for 28 days, mice on high-fat diets. It is filed as in vivo. To be noted: data not shown. Here is the method:
Male C57BL/6 mice were housed individually and given free access to a standard diet (65% carbohydrate, 4% fat, and 24% protein) or a high-fat diet (Quick Fat; 60.2% carbohydrate, 15.3% fat, and 24.5% protein; Clea Japan, Tokyo, Japan), starting at 5 weeks of age, for 5 weeks. Db/db mice also were housed individually and given free access to a standard diet. C57BL/6 mice at 5 weeks of age, were received a single dose of 75 μg/g body weight streptozotoxin (STZ). 7 days after injections, the mice, whose fasting plasma glucose concentrations were over 400 mg/dl, were used as STZ-diabetic mice. Animal study protocols were in accordance with the institutional guidelines for animal experiments at Tohoku University.
as §1

In the case of `CCCCCCCCCCCCCCCC(=O)O[C@@H]1C(O)C(O)[C@H](O)C(O[C@H]2OC(CO)[C@@H](O)[C@H](O)C2N)C1O` (stereo in doubt) [IG1, 2-Amino-2-deoxy-α-D-glucopyranosyl-(1→6)-2-palmitoyl-D-myo-inositol], in [1], the survival times result is “did not affect the survival times”. Besides, in the data set with ob/ob obese mice, the Adiponectin came out at 47.6 ± 4.6 µg/mL, the Body weight came out at 40.1 ± 3.2 g, the Fasting plasma glucose amounted to 66.1 ± 8.3 mg/dL and the Fasting plasma insulin was found to be 16.3 ± 4.3 ng/mL. In the data set on ob/ob obese mice, this compound showed a Food intake of 4.53 ± 0.74 g/day, an NEFA of 0.88 ± 0.34 mEq/l, a TNF-1α of 34.7 ± 6.7 pg/mL and a Total cholesterol of 172.4 ± 13.6 mg/dL. In the data set on ob/ob obese mice, this compound yielded a Triglyceride of 31.2 ± 5.3 mg/dL. Also, in the data set with Panc-1 cells, the “lactate production (aerobic glycolysis)” value was “inhibits lactate production”. Moreover, in [2], the glucose tolerance entry was “improves glucose tolerance”; the “hepatic and muscular glycogen synthesis” value is “increases hepatic and muscular glycogen synthesis”. The lipogenesis entry with 3T3-L1 adipocytes is “stimulates”. In data set [3] (STZ-diabetic mice, data not shown), the “hepatic and muscular glycogen synthesis” value is “increases hepatic and muscular glycogen synthesis”. Moreover, the plasma glucose concentrations result in [3] (intravenous, 0.3 mg per mice, 120-300 min after administration) is given as “significantly reduced plasma glucose concentrations”. Also, in data set [4], the “cell death of HUVEC” value is listed as “induces rapid cell death”. Also, the plasma glucose concentrations result in data set [5] (intravenous, 0.3-1 mg per mice, 90-300 min after administration) is given as “significantly reduced plasma glucose concentrations”. For the same compound, the “hepatic and muscular glycogen contents” value in [5] (mice on high-fat diets, data not shown) is “significantly increases hepatic and muscular glycogen contents”. Also, in data set [6] (intravenous, normal mice), the plasma glucose concentrations result is “reduced plasma glucose concentrations”. In addition, the “hepatic and muscular glycogen synthesis” value in [6] (mice on normal diets, data not shown) is “increases hepatic and muscular glycogen synthesis”. Besides, the “daily food intakes, body weight, and fasting plasma concentrations of insulin, triglyceride, free fatty acids and leptin” value in data set [7] is listed as “significantly reduces”.
